Several values for one entry are separate records, joined by “and”; a condition that tells them apart may be missing. Equal values may be shown once. Read-outs that look alike come from different tables or passages of the source. Bridge positions count the residues as written; N and C are the ends. Square brackets hold non-standard residues; d marks the D form. Peptide text beside a SMILES is read from it. * marks the point of attachment. X1 = C=CCN1CC[C@]23c4c5ccc(O)c4O[C@H]2[C@H](N*)CC[C@@]3(O)[C@H]1C5
Tests used:
[1] = biological target: T1, human KOR E297A (Homo sapiens, UniProt P41145, E297A); experiment: BRET β-arrestin-2 biosensor assay; format: cell-based; conditions: KOR(E297A), Log [drug], individual replicates
T1 construct: FLAG; expressed in transfected cells; host or cells: HEK293T

[2] = biological target: T2, human KOR D138A (Homo sapiens, UniProt P41145, D138A); experiment: cAMP inhibition assay normalized to salvinorin A; format: cell-based
T2 construct: expressed in transfected cells

[3] = biological target: T1, human KOR E297A; format: cell-based; conditions: KOR(E297A), Log [drug], individual replicates
[4] = biological target: T3, human KOR E209A (Homo sapiens, UniProt P41145, E209A); format: cell-based; conditions: KOR(E209A), Log [drug], individual replicates
T3 construct: FLAG; expressed in transfected cells; host or cells: HEK293 / HEK293T, transient

[5] = biological target: T4, human KOR L309A (Homo sapiens, UniProt P41145, L309A); format: cell-based; conditions: KOR(L309A), Log [drug], individual replicates
T4 construct: FLAG; expressed in transfected cells; host or cells: HEK293T

[6] = biological target: T5, mouse KOR, Gαi2 (Mus musculus, UniProt P33534); experiment: TRUPATH BRET G protein assay, Gαi2; format: cell-based
T5 construct: expressed in transfected cells; host or cells: HEK293T (ATCC, CRL-3216), transient

[7] = biological target: human KOR (Homo sapiens, UniProt P41145); experiment: cell-based; set-up: expressed in transfected cells; host or cells: HEK293, transient
[8] = biological target: T6, human MOR (Homo sapiens, UniProt P35372); experiment: [35S]GTPγS binding assay, CHO membranes; format: biochemical; conditions: relative to DAMGO
T6 construct: expressed in transfected cells
T6 sequence (P35372 whole entry): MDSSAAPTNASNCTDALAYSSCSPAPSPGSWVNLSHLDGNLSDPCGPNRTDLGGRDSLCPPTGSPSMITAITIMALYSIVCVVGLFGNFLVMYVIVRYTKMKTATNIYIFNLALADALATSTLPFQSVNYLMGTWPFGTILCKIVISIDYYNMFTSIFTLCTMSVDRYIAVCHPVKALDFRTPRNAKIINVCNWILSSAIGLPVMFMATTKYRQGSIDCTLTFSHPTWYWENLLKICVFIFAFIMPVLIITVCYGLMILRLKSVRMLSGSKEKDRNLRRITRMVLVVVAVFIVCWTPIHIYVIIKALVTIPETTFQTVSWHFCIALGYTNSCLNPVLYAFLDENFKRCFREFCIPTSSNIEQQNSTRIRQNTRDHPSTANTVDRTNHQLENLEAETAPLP

T2 sequence (P41145 whole entry D138A): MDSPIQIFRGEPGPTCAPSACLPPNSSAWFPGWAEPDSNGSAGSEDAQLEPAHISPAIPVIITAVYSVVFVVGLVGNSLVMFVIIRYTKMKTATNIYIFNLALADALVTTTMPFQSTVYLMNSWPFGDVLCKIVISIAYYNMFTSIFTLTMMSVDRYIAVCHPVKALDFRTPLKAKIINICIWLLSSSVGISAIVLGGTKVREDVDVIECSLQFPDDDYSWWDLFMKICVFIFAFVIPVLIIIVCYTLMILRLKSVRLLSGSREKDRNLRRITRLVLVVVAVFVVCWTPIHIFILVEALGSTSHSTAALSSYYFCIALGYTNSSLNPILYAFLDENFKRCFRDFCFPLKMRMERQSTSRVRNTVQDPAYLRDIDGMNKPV
T5 sequence (P33534 whole entry): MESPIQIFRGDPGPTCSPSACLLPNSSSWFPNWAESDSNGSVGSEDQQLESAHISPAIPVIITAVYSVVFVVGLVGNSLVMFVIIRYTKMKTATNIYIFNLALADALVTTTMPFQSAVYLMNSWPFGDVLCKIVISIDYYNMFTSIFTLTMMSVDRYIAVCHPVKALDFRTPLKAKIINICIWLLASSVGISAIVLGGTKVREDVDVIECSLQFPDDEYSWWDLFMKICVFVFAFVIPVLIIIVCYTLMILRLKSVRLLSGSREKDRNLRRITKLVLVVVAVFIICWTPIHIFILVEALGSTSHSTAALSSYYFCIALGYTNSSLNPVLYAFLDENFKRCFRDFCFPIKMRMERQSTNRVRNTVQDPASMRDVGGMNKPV
T4 sequence (P41145 whole entry L309A): as the sequence (P41145 whole entry D138A) above, with A138D, L309A counted along it
T1 sequence (P41145 whole entry E297A): as the sequence (P41145 whole entry D138A) above, with A138D, E297A counted along it
T3 sequence (P41145 whole entry E209A): as the sequence (P41145 whole entry D138A) above, with A138D, E209A counted along it
Chain of human KOR (P41145 whole entry): as the sequence (P41145 whole entry D138A) above, with A138D counted along it

C=CCN1CC[C@]23c4c5ccc(O)c4O[C@H]2[C@H](NC(=O)[C@@H](Cc2ccccc2)NC(=O)[C@@H](NC(=O)[C@@H]2CSCC(=O)N[C@@H](Cc4ccc(O)cc4)C(=O)N[C@@H](C)C(=O)N[C@H](Cc4ccc(O)cc4)C(=O)N[C@@H]([C@@H](C)O)C(=O)N[C@@H]([C@@H](C)O)C(=O)N2)[C@@H](C)O)CC[C@@]3(O)[C@H]1C5 [DNCP-βNalA(1)] ({CH2CO}-YA[dY]TTCT[dF]-X1; thioether N-6)
βarrestin2-reruitment ([1]; M = -5): 64.952 and 70.3776 and 70.3029 | βarrestin2-reruitment ([1]; M = -6): 64.952 (2×) and 65.8365 and 61.2954 and 65.7763 and 64.7423 | βarrestin2-reruitment ([1]; M = -7): 57.4606 and 53.3486 and 51.3006 and 53.3686 and 55.3202 | βarrestin2-reruitment ([1]; M = -8): 54.25 and 56.7544 and 54.4026 and 55.3202 | βarrestin2-reruitment ([1]; M = -9): 42.4779 and 34.0491 and 29.508 and 29.5871 and 25.4512 and 32.8461 | βarrestin2-reruitment ([1]; M = -10): 4.532 and 6.8027 and 4.772 | response at D138A, Figure S26 ([2]; Log [ligand] (M) -5): 110.03 and 108.68 and 121.152 and 120.937 and 117.964 and 108.941 and 117.457 | response at D138A, Figure S26 ([2]; Log [ligand] (M) -6): 96.1567 and 103.986 and 100.687 and 108.287 and 104.111 and 103.774 and 93.2795 and 106.739 | response at D138A, Figure S26 ([2]; Log [ligand] (M) -7): 95.0352 and 99.2926 and 97.756 and 110.621 and 103.099 and 111.681 and 84.8048 and 93.7365 | response at D138A, Figure S26 ([2]; Log [ligand] (M) -8): 92.5638 and 91.2347 and 98.8959 and 103.021 and 118.301 and 103.099 and 100.466 and 95.1074 | response at D138A, Figure S26 ([2]; Log [ligand] (M) -9): 68.4109 and 66.6248 and 86.0309 and 72.0259 and 98.5019 and 110.7 and 66.4429 and 85.6772 | Gi1-activation ([3]; M = -5): 95.0144 | Gi1-activation ([3]; M = -6): 93.9606 and 93.3336 and 93.3709 | Gi1-activation ([3]; M = -7): 92.7066 and 94.3563 | Gi1-activation ([3]; M = -8): 92.7066 and 93.9606 and 93.6983 | Gi1-activation ([4]; M = -6): 95.0321 | Gi1-activation ([4]; M = -7): 98.4538 and 95.0321 and 92.9731 (2×) | Gi1-activation ([4]; M = -9): 93.8915 and 90.4927 | Gi1-activation ([5]; M = -5): 98.4884 and 94.3563 | Gi1-activation ([5]; M = -6): 92.9882 and 93.5382 and 87.9287 | Gi1-activation ([5]; M = -7): 91.3288 and 89.81 and 94.9619 | Gi1-activation ([5]; M = -8): 94.9619 and 94.0882

CC(C)=CCN1CCC2(C)c3cc(O)ccc3CC1C2C (centres unmarked) [Pentazocine, pentazocine]
Gαi2, normalized response (single replicate values) ([6]; Log [ligand] (M) -5): 63.0631 and 33.772 and 78.2944 and 66.7992 and -8.535 and 43.2571 and 15.0067 and 36.1153 | Gαi2, normalized response (single replicate values) ([6]; Log [ligand] (M) -6): 81.8094 and 43.1452 and 67.7496 and 22.5401 and 66.7992 and 32.8986 (2×) and 41.9735 | Gαi2, normalized response (single replicate values) ([6]; Log [ligand] (M) -7): 33.772 (2×) and 29.0855 and 9.357 and 40.4321 and 39.4904 and 59.2657 and 49.0034 | Gαi2, normalized response (single replicate values) ([6]; Log [ligand] (M) -8): 36.1153 and 16.1974 and 29.0855 and -23.6023 and 39.4904 and 26.3069 and 33.8403 and 44.3168 | Gαi2, normalized response (single replicate values) ([6]; Log [ligand] (M) -9): -10.7504 and 16.1974 and 32.6004 and -17.0105 and 12.1816 and 27.2485 and 41.3738 and 15.0258 | Gαi2, normalized response (single replicate values) ([6]; Log [ligand] (M) -10): -1.377 and -15.4369 and -0.06023 (2×) and -7.594 and -5.71 and -13.0937 | Gαi2, normalized response (single replicate values) ([6]; Log [ligand] (M) -11): -3.721 and -2.549 and 15.0258 and 1.823 and -26.4273 and -45.2609 and 40.4321 and -15.4369 | Gαi2, normalized response (single replicate values) ([6]; Log [ligand] (M) -12): 20.884 and 5.653 and -14.2653 and 5.59 and 13.1233 and -22.6606 and 37.607 and -1.377 | Gαi2 (Figure 3j) ([6]; source data of Figure 3j, U50,488 about 100): 42.2346 | EC50 [7]: 1.01 µM | β-arrestin-2 (Figure 3j) [7]: 38 | Emax ([7]; HEK293, read-out: Emax β-arrestin-1 recruitment): 38 ± 24%

DAMGO
Emax (%) MOR [8]: 100%

Reference: paper PMC10698194 (Nature Communications, 2023)
